Key:
SH-SY5Y cells [1] = assay: Toxicity of Aβ42 alone (LDH release, ATP levels, caspase-3/7 activation, cell viability); type: cell-based, human
Source text: To investigate the effect of 2AT and KLT on Aβ42 toxicity, we performed a series of cell-based toxicity experiments in which we examined four toxicity markers—LDH release, changes in ATP levels, caspase-3/7 activation, and cell viability—in SH-SY5Y cells exposed to Aβ42 in the absence or presence of 2AT and KLT. We first identified an Aβ42 concentration that elicits significant toxicity in the absence of 2AT and KLT by exposing SH-SY5Y cells to varying concentrations of Aβ42 and then performing the toxicity assays. The toxicity markers establish that Aβ42 elicits significant toxicity at 6 μM (SI Appendix, Fig. S8). […]
Detailed methods are provided in the Supporting Information. […] X-ray diffraction data for KLT and KLTI were collected on a Rigaku Micromax-007HF X-ray diffractometer with a rotating copper anode, and the X-ray crystallographic phases were determined using molecular replacement and SAD phasing. […] Live-cell fluorescence microscopy was performed on SH-SY5Y cells adhered to an Ibidi µ-Slide eight Well Chamber Slide. The cells were imaged using a Keyence BZ-X810 fluorescence microscope and analyzed using the Hybrid Cell Count application in the BZ-X810 Analyzer software. […]

SH-SY5Y cells [2] = assay: Live-cell fluorescence microscopy of HL647-Aβ42 cellular interaction; type: cell-based, human; details: 1 μM HL647-Aβ42, absence of 2AT and KLT, 16 h
Method: Fig. 7. The effects of 2AT and KLT on Aβ42 toxicity and cellular interaction (A–D). (A) LDH release assay (B) CellTiter-Glo ATP assay. (C) ApoLive-Glo cell viability assay. (D) ApoLive-Glo caspase-3/7 activation assay. The cell-based assays in A–D were performed by exposing SH-SY5Y cells to 6 μM Aβ42 in the presence of a twofold dilution series of 2AT and KLT for 72 h. All data from the assays are shown as the mean of three technical replicates, with error bars representing the SD. (E–I) Live-cell fluorescence micrographs of SH-SY5Y cells after treatment with 1 μM HiLyte™ Fluor 647-Aβ42 (HL647-Aβ42) in the presence of 0 μM trimer (E) or 2 μM and 4 μM 2AT (F and G) or 2 μM and 4 μM KLT (H and I) for 16 h; (Scale bars, 20 μm.) Fluorescence quantification (FQ), as determined by (total fluorescence of HL647Aβ42)/(total number of cells) is indicated on each micrograph. Dead cells were excluded from the fluorescence quantification analysis and are marked with a white “x”. […]
For these experiments, we exposed SH-SY5Y cells to 1 μM solutions of N-terminally labeled HiLyte™ Fluor 647-Aβ42 (HL647-Aβ42) containing 0 μM, 2 μM, or 4 μM 2AT or KLT and then used live-cell fluorescence microscopy to visualize and quantify HL647-Aβ42 fluorescence on the cells. […]

Substance | concentration that elicits significant toxicity (SH-SY5Y cells [1]) [µM] | cellular localization / uptake of HL647-Aβ42 (SH-SY5Y cells [2])
Aβ42: full-length β-amyloid peptide Aβ42 | 6 | 
HL647-Aβ42: N-terminally labeled HiLyte Fluor 647-Aβ42 |  | accumulates as punctate features inside the cells
